Active and inactive are the calls of the source.
What was measured:
NADPH oxidase 1 = NADPH oxidase 1 (Homo sapiens, UniProt Q9Y5S8); assay: Late-stage luminescence-based cell-based dose response assay to identify inhibitors of NADPH oxidase 1 (NOX1): Purchased analogs 2.; assay type: functional
Estrogen receptor = target: T1, Estrogen receptor (Homo sapiens, UniProt P03372); assay: potentiators of ERα–SRC-1 coactivator binding, dose response, biochemical, TR-FRET, ERα LBD (AID 737)
T1 sequence (P03372 whole entry): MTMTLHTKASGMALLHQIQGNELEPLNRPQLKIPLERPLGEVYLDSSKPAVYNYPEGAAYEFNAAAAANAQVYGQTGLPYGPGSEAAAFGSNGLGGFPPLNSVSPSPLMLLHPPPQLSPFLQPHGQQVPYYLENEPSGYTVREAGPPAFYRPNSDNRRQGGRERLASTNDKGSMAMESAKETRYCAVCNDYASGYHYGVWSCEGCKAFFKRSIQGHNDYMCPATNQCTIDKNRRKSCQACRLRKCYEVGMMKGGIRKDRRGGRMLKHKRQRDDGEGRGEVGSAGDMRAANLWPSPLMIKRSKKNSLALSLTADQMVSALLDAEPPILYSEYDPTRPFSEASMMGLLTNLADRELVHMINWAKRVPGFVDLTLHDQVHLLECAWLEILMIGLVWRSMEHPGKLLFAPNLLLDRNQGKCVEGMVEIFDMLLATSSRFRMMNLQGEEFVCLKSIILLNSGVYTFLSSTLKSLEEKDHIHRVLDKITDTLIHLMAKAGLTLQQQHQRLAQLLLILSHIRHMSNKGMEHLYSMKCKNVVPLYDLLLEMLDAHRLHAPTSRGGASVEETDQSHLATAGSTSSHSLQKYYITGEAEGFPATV

[1] = target: T2, Microphthalmia-associated transcription factor (Homo sapiens, UniProt O75030); assay: TRPM1 promoter luciferase signal decrease, dose response, MITF inhibitor project, cell-based, SK-MEL-5, cherry-picked, set 3 (AID 493073); assay type: functional
T2 sequence (O75030 whole entry): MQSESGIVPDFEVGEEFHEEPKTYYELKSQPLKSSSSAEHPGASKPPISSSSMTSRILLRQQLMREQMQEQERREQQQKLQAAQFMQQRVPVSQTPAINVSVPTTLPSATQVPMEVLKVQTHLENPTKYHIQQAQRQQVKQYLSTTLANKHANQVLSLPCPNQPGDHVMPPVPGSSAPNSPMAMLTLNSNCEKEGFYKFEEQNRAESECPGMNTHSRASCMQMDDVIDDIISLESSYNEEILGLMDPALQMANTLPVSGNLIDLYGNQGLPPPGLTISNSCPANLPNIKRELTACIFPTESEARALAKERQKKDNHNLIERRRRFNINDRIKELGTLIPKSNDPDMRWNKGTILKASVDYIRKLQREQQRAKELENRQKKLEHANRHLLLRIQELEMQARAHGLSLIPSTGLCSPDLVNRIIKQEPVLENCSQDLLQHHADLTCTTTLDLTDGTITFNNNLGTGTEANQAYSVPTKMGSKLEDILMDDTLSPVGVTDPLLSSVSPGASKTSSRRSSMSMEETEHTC

[2] = Fluorescence-based cell-based high throughput dose response assay for inhibitors of the interaction of nucleotide-binding oligomerization domain containing 2 (NOD2) and the receptor-interacting serine-threonine kinase 2 (RIPK2).; assay type: functional; details: Homo sapiens
[3] = target: Neuropeptide Y receptor type 1 (Homo sapiens, UniProt P25929); assay type: functional;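 further: HEK293 cells with a CNG channel challenged with NPY then isoproterenol; potency as antagonist that reverses NPY suppression of cAMP signal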
Beta-galactosidase = Beta-galactosidase (Escherichia coli, UniProt Q8VNN2); assay type: functional
[4] = target: T3, Kappa-type opioid receptor (Homo sapiens, UniProt P41145); assay type: functional
[5] = HeLa cell cytotoxicity, dose response, cytotoxicity control for MgcRacGAP inhibitor project (AID 624300); assay type: functional
[6] = target: Neuropeptide Y receptor type 2 (Homo sapiens, UniProt P49146); assay type: functional, cell-based;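 further: HEK293 cells expressing the receptor and a CNG channel; stimulus was NPY near EC95 followed by isoproterenol to raise cAMP; antagonist potency measured as restoring cAMP signal that NPY suppresses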
Beta Lactamase = Beta Lactamase (Pseudomonas aeruginosa, UniProt Q932Y6); assay: beta-lactamase reporter inhibitor potency, dose response, artefact control for NOD2-RIPK2 interaction inhibitor project, BLA reporter cells, FRET fluorescence (AID 651552); assay type: functional, cell-based
[7] = target: T4, Rac GTPase-activating protein 1 (Homo sapiens, UniProt Q9H0H5); assay: MgcRacGAP GTPase-activating activity inhibitors, confirmation, biochemical, ADP Hunter fluorescence, primary and confirmatory (AID 624330); assay type: functional
T4 sequence (Q9H0H5 whole entry): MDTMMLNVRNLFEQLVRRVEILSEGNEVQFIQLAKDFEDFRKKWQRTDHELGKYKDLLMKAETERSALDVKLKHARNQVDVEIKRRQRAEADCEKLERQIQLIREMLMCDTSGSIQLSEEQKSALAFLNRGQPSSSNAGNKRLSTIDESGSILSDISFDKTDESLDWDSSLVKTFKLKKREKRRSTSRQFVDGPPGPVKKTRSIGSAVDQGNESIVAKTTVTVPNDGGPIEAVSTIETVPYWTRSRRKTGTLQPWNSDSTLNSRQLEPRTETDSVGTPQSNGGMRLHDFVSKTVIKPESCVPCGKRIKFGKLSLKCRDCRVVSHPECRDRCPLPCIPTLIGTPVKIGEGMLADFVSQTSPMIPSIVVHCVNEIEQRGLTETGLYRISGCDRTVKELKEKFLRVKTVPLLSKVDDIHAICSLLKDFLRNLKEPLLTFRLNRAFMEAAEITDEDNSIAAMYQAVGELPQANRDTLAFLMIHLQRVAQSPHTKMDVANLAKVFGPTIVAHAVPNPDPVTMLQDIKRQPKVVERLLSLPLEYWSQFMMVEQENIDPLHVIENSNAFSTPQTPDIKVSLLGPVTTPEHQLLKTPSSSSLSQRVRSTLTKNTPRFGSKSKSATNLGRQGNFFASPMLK

[8] = target: T3, Kappa-type opioid receptor; assay type: functional; remark: listed apart in the source
Estrogen receptor beta [9] = target: T5, Estrogen receptor beta (Homo sapiens, UniProt Q92731); assay: ERβ–SRC-3 coactivator interaction inhibitors, confirmation, orthogonal assay, biochemical, ELISA, streptavidin-HRP readout (AID 1060)
Estrogen receptor beta [10] = target: T5, Estrogen receptor beta
[11] = target: Heat shock protein HSP 90-alpha (Homo sapiens, UniProt P07900); assay: Luminescence-based dose response biochemical high throughput screening assay for inhibitors of the Heat Shock Protein 90 (HSP90). [Related pubchem assays: 1831 (Summary AID.), 1846 (Confirmation screen.), 1789 (Primary screen.)]
[12] = target: Lytic switch protein BZLF1 (Epstein-Barr virus (strain B95-8) (HHV-4) (Human herpesvirus 4), UniProt P03206); assay: EBV ZTA inhibitors, dose response, counter-screen for EBNA-1 inhibitor project, biochemical, fluorescence polarization, Epstein-Barr virus, 1536-well (AID 2377); parameters: species or system human gammaherpesvirus 4;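 further: fluorescence polarization of Cy5-labelled ZRE DNA probe bound by purified Zta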
[13] = target: Epstein-Barr nuclear antigen 1 (Epstein-Barr virus (strain B95-8) (HHV-4) (Human herpesvirus 4), UniProt P03211); assay: EBNA-1 inhibitors, dose response, biochemical, fluorescence polarization, 1536-well (AID 2381); parameters: species or system human gammaherpesvirus 4;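 further: fluorescence polarization of a Cy5 DNA probe bound by EBNA-1 protein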
[14] = Luminescence Cell-Based Dose Response HTS to Identify Activators of Luciferase Translation or Activity in H4 […] Cells. [Related pubchem assays: 1829 (Project Summary), 1814 (Primary HTS)]; assay type: functional
[15] = target: Disintegrin and metalloproteinase domain-containing protein 17 (Homo sapiens, UniProt P78536); assay: ADAM17 protease inhibitors, dose response, counter-screen for ADAM10 exosite inhibitor project, biochemical, quenched FRET substrate (AID 743253)
[16] = Luminescence Cell-Based Dose Response to Identify Activators of 5'UTR Stem-Loop Driven Prion Protein mRNA Translation in H4-C Neuroglioblastoma Cells. [Related pubchem assays: 1829 (Project Summary), 1814 (Primary HTS)]; assay type: functional
[17] = Luminescence Cell-Based Dose Response to Identify Activators of Luciferase Translation or Activity in H4-C Neuroglioblastoma Cells. [Related pubchem assays: 1829 (Project Summary), 1814 (Primary HTS)]; assay type: functional
[18] = M. tuberculosis growth inhibition, HTS (AID 449762); assay type: functional
[19] = Luminescence Cell-Based Dose Confirmation to Identify Activators of 5'UTR Stem-Loop Driven Alpha-Synuclein mRNA Translation in H4 Neuroglioblastoma Cells. [Related pubchem assays: 1829 (Project Summary), 1814 (Primary HTS)]; assay type: functional
14-3-3 protein gamma = 14-3-3 protein gamma (Homo sapiens, UniProt P61981); assay: modulators of 14-3-3 gamma client binding – dose response (AID 711); assay type: functional
Nonstructural protein 1 = Nonstructural protein 1 (Influenza A virus, UniProt Q194T2); assay type: functional, Influenza A virus (A/California/07/2009(H1N1))
[20] = target: T6, Mannose-6-phosphate isomerase (Homo sapiens, UniProt P34949); assay: inhibitors of human PMI, primary screen, biochemical, fluorescence intensity, coupled assay (AID 1209)
T6 sequence (P34949 whole entry): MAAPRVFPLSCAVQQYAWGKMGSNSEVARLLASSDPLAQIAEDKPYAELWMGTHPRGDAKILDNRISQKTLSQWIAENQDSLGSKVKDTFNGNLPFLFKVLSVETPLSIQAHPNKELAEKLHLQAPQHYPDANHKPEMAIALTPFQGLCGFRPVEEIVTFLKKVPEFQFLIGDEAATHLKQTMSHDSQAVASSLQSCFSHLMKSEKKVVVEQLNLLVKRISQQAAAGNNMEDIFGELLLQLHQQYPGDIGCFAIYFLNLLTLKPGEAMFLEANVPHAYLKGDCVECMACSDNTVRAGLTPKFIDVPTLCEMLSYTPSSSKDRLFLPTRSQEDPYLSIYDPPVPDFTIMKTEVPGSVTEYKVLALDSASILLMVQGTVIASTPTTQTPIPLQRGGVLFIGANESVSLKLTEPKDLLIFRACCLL

Cytochrome P450 2D6 = Cytochrome P450 2D6 (Homo sapiens, UniProt P10635);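 further: CYP2D6 member of a cytochrome P450 panel assay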
Cytochrome P450 2D6, sequence (P10635 whole entry): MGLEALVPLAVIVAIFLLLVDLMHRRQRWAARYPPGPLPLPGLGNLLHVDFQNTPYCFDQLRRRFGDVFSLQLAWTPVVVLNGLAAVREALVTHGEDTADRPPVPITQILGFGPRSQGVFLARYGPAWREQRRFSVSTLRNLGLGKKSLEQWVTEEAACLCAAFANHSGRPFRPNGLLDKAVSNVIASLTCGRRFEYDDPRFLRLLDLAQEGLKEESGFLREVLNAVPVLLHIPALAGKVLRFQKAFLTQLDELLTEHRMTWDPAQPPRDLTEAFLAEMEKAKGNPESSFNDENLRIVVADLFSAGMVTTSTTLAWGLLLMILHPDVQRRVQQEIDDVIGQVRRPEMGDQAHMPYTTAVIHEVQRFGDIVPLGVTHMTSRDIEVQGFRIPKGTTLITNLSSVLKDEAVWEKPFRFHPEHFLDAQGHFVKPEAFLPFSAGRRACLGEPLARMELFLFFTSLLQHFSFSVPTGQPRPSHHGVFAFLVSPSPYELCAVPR

T3 sequence (P41145 whole entry): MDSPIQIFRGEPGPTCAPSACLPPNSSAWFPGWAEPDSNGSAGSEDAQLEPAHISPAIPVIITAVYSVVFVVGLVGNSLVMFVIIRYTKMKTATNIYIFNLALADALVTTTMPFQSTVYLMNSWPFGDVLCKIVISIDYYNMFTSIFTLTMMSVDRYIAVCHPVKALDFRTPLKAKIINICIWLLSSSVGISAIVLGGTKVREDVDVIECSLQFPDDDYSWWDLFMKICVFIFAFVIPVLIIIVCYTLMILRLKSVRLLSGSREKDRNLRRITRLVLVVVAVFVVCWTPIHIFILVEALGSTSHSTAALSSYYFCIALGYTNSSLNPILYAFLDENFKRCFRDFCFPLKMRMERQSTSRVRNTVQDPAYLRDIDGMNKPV
T5 sequence (Q92731 whole entry): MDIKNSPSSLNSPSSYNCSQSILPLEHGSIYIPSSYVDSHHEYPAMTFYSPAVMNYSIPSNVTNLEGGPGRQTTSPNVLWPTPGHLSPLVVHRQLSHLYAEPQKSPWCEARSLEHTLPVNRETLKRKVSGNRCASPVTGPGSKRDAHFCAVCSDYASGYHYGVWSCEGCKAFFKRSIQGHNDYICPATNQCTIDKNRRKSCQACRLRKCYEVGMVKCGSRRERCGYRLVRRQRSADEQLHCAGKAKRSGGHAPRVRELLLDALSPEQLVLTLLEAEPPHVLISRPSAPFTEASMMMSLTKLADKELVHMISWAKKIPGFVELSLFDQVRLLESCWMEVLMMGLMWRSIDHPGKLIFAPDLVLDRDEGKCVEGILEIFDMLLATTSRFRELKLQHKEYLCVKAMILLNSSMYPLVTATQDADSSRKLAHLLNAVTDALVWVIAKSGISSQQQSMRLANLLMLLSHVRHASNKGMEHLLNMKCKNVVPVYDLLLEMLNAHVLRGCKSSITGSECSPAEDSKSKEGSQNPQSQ
Epstein-Barr nuclear antigen 1, sequence (P03211 whole entry): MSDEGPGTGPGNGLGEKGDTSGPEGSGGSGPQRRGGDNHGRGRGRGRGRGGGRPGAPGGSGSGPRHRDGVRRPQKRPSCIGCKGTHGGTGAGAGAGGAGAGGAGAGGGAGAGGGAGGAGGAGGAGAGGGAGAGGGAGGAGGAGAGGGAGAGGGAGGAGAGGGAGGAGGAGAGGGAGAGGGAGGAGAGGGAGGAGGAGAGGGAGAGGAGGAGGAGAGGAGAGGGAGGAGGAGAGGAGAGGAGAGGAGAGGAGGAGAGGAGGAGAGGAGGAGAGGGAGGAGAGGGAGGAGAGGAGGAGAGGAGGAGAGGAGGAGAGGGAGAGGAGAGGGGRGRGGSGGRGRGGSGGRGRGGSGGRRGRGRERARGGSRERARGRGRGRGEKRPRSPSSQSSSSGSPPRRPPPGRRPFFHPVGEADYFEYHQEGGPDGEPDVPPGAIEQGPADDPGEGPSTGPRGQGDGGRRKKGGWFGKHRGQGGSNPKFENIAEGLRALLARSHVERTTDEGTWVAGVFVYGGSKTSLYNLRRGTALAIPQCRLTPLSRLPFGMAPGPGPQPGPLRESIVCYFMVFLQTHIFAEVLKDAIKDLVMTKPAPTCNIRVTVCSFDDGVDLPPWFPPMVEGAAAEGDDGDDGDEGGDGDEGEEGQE
Beta-galactosidase, sequence (Q8VNN2 whole entry): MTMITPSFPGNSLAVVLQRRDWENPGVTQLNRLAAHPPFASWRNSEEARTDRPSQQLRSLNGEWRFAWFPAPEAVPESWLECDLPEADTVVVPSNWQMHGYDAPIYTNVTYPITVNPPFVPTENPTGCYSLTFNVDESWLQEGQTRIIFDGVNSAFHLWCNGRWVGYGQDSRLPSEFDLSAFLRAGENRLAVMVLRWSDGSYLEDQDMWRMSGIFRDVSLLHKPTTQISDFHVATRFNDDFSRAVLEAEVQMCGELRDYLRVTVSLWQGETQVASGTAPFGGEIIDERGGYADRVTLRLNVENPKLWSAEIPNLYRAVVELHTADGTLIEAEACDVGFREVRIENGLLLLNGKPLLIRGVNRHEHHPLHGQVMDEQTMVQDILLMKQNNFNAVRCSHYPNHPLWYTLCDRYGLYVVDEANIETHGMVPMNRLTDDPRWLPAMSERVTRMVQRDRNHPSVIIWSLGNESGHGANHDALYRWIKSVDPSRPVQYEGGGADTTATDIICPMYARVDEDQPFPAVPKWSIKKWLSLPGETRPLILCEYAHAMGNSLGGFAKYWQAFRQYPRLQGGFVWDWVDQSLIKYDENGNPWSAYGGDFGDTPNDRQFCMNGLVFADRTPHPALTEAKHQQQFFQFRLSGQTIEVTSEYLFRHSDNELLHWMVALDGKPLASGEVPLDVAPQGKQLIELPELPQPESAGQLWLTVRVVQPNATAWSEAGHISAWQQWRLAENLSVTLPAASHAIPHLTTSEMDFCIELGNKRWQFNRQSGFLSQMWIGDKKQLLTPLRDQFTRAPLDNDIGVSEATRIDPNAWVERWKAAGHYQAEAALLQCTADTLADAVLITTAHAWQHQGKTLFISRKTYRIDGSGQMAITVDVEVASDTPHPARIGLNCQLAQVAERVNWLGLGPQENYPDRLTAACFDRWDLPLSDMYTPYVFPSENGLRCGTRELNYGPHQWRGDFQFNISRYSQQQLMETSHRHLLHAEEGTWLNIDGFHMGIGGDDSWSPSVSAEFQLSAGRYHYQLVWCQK
Neuropeptide Y receptor type 1, sequence (P25929 whole entry): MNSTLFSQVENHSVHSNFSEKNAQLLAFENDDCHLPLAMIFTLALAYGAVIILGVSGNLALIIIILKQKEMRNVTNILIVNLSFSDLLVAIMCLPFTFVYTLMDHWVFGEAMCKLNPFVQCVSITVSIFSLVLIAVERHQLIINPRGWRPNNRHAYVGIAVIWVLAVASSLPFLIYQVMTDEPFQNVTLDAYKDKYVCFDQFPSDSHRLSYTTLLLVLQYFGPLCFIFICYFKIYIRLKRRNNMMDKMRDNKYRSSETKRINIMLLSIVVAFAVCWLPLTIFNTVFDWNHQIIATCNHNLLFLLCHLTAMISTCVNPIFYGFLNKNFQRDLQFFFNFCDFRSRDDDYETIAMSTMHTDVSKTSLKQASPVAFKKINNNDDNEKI
Neuropeptide Y receptor type 2, sequence (P49146 whole entry): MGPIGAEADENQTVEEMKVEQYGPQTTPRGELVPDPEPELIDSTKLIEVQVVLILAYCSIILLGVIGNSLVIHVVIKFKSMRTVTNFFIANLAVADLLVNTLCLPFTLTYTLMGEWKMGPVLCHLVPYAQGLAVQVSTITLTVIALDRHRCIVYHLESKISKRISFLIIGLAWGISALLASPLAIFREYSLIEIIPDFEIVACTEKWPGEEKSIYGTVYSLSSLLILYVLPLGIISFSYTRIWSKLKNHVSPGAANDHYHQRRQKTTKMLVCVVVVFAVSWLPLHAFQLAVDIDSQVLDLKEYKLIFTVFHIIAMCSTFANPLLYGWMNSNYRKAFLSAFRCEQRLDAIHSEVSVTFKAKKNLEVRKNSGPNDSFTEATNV
Nonstructural protein 1, sequence (Q194T2 whole entry): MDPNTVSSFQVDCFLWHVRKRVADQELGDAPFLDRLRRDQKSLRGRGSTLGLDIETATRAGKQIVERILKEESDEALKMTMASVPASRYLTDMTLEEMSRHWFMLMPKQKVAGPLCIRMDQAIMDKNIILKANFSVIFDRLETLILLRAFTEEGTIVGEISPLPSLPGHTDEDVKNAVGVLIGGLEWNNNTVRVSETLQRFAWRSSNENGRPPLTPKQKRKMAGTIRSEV
Lytic switch protein BZLF1, sequence (P03206 whole entry): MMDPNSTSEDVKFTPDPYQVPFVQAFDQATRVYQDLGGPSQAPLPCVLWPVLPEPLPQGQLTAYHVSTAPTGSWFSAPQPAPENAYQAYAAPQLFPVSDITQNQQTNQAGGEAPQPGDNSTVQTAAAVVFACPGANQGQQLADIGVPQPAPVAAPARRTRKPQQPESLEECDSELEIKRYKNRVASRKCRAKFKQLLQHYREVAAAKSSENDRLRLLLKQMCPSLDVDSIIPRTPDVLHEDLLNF
NADPH oxidase 1, sequence (Q9Y5S8 whole entry, the tested form may be a part): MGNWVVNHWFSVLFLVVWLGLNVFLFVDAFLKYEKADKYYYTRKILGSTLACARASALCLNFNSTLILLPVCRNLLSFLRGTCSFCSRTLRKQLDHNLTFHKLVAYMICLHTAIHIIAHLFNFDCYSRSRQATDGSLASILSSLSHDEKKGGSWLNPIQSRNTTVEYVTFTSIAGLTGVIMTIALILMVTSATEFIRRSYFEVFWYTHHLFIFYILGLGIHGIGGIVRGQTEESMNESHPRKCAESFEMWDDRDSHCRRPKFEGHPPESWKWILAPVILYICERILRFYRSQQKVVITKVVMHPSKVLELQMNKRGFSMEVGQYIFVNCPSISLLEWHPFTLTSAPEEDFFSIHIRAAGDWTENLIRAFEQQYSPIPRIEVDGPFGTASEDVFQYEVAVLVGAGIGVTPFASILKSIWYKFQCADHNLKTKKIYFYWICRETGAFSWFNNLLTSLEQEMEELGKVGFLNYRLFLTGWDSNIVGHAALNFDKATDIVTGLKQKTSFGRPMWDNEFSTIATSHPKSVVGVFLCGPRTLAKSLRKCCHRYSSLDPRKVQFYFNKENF

## COc1ccc(/C=N/Nc2c(F)c(F)c(F)c(F)c2F)cc1
NADPH oxidase 1
  IC50: > 17 µM (not active)

## CCOC(=O)c1cc2c(c(CSc3nc4ccccc4c(=O)n3Cc3ccco3)c1)OCOC2
Estrogen receptor
  EC50: 3.27 µM (active)

## N#CC(C#N)=C1C=CC=CN1/C(=C\c1ccco1)C(=O)c1ccc(Cl)cc1
[1]
  AC50: 6.85 µM (active)
[2]
  IC50: 1.13 µM (active)
[3]
  IC50: 4.08 µM (active)
Beta-galactosidase
  EC50: > 31.5 µM (inactive)
[4]
  IC50: 16.5 µM
[5]
  CC50: 100 µM (active)
[6]
  IC50: 3.06 µM (active)
Beta Lactamase
  IC50: 45.9 µM (inactive)
[7]
  IC50: 121 µM (active)
[8]
  IC50: 3.64 µM (active)

## Cc1nc2cc(C(=O)O)ccc2[nH]1
Estrogen receptor beta [9]
  IC50: 99.5 µM (not active)
Estrogen receptor beta [10]
  IC50: 24.7 µM (active)
[11]
  IC50: 7.21 µM (active)

## Cc1ccc(/C=C2\SC(=S)N(CCC(=O)NNC(=O)c3ccc(O)cc3)C2=O)cc1
[12]
  IC50: > 111 µM (not active)
[13]
  IC50: 11.6 µM (not active)

## C(=C\c1ccccc1)/C=N/Nc1nc2ccccc2s1
[14]
  EC50: < 0.1 µM (inconclusive)
[15]
  IC50: > 69.5 µM (inactive)
[16]
  EC50: 0.349 µM (active)
[17]
  EC50: 0.289 µM (active)
[18]
  IC50: > 100 µM (active)
[19]
  EC50: 0.366 µM (active)

## COc1ccc(C(=O)Oc2ccc(C(C)=O)cc2)c(OC)c1
14-3-3 protein gamma
  IC50: > 50 µM (not active)

## CC(C)/N=c1\scc(-c2ccco2)n1/N=C/c1ccc(O)c(O)c1
Nonstructural protein 1
  IC50: 39.3 µM (active)
[5]
  CC50: 99.4 µM (active)
[20]
  IC50: > 50 µM (not active)
Cytochrome P450 2D6
  AC50: 14.1 µM (inconclusive)
[7]
  IC50: 56.3 µM (active)
